Measurements published in PMC9000336, “Development of Bicyclo[3.1.0]hexane-Based A3 Receptor Ligands: Closing the Gaps in the Structure–Affinity Relationships” (Molecules, 2022).
Read-outs that look alike come from different tables or passages of the source.

Key:
[1] = target: T1, human adenosine A1 receptor (Homo sapiens, UniProt P30542); test: Radioligand displacement assay, human adenosine A1 receptor ([3H]DPCPX, CHOhA1R membranes); format: binding; conditions: for inhibition at 10 µM: test compound 10 µM; for Ki: [3H]DPCPX, read-out: A1 Ki ± SEM
T1 construct: expressed in transfected cells; host or cells: CHO cells (CHOhA1R), gift of Prof; S. J. Hill; membrane preparation
T1 sequence (P30542 1-326): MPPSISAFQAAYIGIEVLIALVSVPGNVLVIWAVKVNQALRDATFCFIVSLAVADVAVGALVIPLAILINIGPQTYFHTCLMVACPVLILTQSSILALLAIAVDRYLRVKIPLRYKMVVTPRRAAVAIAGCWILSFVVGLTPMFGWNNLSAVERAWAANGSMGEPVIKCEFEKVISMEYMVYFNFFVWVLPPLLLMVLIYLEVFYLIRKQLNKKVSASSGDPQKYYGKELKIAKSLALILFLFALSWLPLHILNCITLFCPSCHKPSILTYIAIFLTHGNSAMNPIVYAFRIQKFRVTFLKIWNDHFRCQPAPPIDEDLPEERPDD
Experimental: Chinese hamster ovary (CHO) cells stably expressing the human adenosine A1 receptor (CHOhA1R) were kindly provided by Prof. S. J. Hill and CHO cells stably expressing the human adenosine A3 receptor (CHOhA3R) were a gift from Dr. K.-N. Klotz (University of Würzburg, Germany). Chinese hamster ovary cells stably expressing the human A1-receptor (CHOhA1R) or the human A3-receptor (CHOhA3R) were grown in Dulbecco’s Modified Eagle’s Medium (DMEM) and Ham’s F12 medium (1:1) supplemented with 10% (v/v) newborn calf serum, 50 µg/mL streptomycin, 50 IU/mL penicillin, and 200 µg/mL G418 at 37 °C and 5% CO2. […] All cells were grown to 80–90% confluency and detached from plates by scraping them into 5 mL phosphate-buffered saline. Detached cells were collected and centrifuged at 200 g for 5 min. Pellets derived from 100 15 cm Ø plates were pooled and resuspended in 70 mL of ice-cold 50 mM tris(hydroxymethyl)aminomethane (Tris)-HCl buffer, pH 7.4. A Heidolph Diax 900 homogenizer was used to homogenize the cell suspension. Membranes and the cytosolic fraction were separated by centrifugation at 100,000 g in a Beckman Optima LE-80 K ultracentrifuge (Beckman Coulter, Fullerton, CA, USA) at 4 °C for 20 min. The pellet was resuspended in 35 mL of the Tris-HCl buffer, and the homogenization and centrifugation steps were repeated. Tris-HCl buffer (25 mL) was used to resuspend the pellet, and adenosine deaminase (ADA) was added (0.8 U/mL) to break down endogenous adenosine. Membranes were stored in 250 µL and 500 µL aliquots at −80 °C. Total protein concentrations were measured using the bicinchoninic acid (BCA) method.
A1 Receptor: Membrane aliquots containing 5 µg (CHOhA1R) protein were incubated in a total volume of 100 µL assay buffer (50 mM Tris-HCl, pH 7.4) at 25 °C for 1 h. […] Nonspecific binding was determined in the presence of 100 µM N^6-cyclopentyladenosine (CPA). Incubations were terminated by rapid vacuum filtration to separate the bound and free radioligand through prewetted 96-well GF/B filter plates using a PerkinElmer Filtermate-harvester (Perkin Elmer, Groningen, the Netherlands). Filters were subsequently washed 12 times with ice-cold 50 mM Tris-HCl, pH 7.4.
(§1) The plates of all four adenosine receptor assays were dried at 55 °C after which MicroscintTM-20-cocktail was added (Perkin Elmer, Groningen, The Netherlands).
(§2) All experimental data were analyzed using the non-linear regression curve fitting program GraphPad Prism 7.0 (GraphPad Software Inc., San Diego, CA, USA). IC50 values obtained from competition displacement binding data were converted into Ki values using the Cheng–Prusoff equation.

hA2B receptor = target: T2, hA2B receptor (Homo sapiens, UniProt P29275); test: Radioligand displacement assay, human adenosine A2B receptor ([3H]PSB-603, CHO-spap-hA2BR membranes); format: binding
T2 construct: expressed in transfected cells; host or cells: CHO-spap cells (CHO-spap-hA2BR), from S. J. Dowell (GlaxoSmithKline); membrane preparation
T2 sequence (P29275 1-332): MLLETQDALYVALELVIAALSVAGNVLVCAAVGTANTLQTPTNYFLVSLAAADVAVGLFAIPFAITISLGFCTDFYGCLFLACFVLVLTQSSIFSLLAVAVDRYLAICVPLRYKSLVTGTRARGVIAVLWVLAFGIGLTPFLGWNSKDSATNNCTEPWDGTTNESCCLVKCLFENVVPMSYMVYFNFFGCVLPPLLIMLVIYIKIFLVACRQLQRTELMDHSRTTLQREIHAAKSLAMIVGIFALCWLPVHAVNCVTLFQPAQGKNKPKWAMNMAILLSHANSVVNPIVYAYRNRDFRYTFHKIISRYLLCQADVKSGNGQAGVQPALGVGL
Experimental: Human embryonic kidney 293 cells stably expressing the human adenosine A2A receptor (HEK293hA2AR) were kindly provided by Dr. J. Wang (Biogen/IDEC, Cambridge, MA, USA), CHO-spap cells stably expressing the wild-type (WT) hA2B receptor (CHO-spap-hA2BR) were kindly provided by S. J. Dowell (GlaxoSmithKline, Brentfort, UK).
Chinese hamster ovary cells stably expressing the […] and a reporter gene, the secreted placental alkaline phosphatase, (CHO-spap-hA2BR) were grown in DMEM and Ham’s F12 medium (1:1) supplemented with 10% (v/v) newborn calf serum, 100 µg/mL streptomycin, 100 IU/mL penicillin, 1 mg/mL G418, and 0.4 mg/mL hygromycin at 37 °C and 5% CO2.
All cells were grown to 80–90% confluency and detached from plates by scraping them into 5 mL phosphate-buffered saline. Detached cells were collected and centrifuged at 200 g for 5 min. Pellets derived from 100 15 cm Ø plates were pooled and resuspended in 70 mL of ice-cold 50 mM tris(hydroxymethyl)aminomethane (Tris)-HCl buffer, pH 7.4. A Heidolph Diax 900 homogenizer was used to homogenize the cell suspension. Membranes and the cytosolic fraction were separated by centrifugation at 100,000 g in a Beckman Optima LE-80 K ultracentrifuge (Beckman Coulter, Fullerton, CA, USA) at 4 °C for 20 min. The pellet was resuspended in 35 mL of the Tris-HCl buffer, and the homogenization and centrifugation steps were repeated. Tris-HCl buffer (25 mL) was used to resuspend the pellet, and adenosine deaminase (ADA) was added (0.8 U/mL) to break down endogenous adenosine. Membranes were stored in 250 µL and 500 µL aliquots at −80 °C. Total protein concentrations were measured using the bicinchoninic acid (BCA) method.
A2B Receptor: Membrane aliquots containing 30 µg (CHO-spap-hA2BR) total protein were incubated in a total volume of 100 µL assay buffer (0.1% CHAPS in 50 mM TrisHCl, pH 7.4) at 25 °C for 2 h. […] Nonspecific binding was determined in the presence of 10 µM ZM241385. Incubations were terminated by rapid vacuum filtration to separate the bound and free radioligand through prewetted 96-well GF/B filter plates using a PerkinElmer Filtermate-harvester (Perkin Elmer, Groningen, the Netherlands). Filters were subsequently washed 12 times with ice-cold 0.1% BSA in 50 mM Tris-HCl, pH 7.4.
as §1, §2

[2] = n = 3, [3H]PSB-603, read-out: A2B Ki ± SEM

Row | Structure (SMILES) | inhibition at 10 µM ([1]; n = 3) | Ki (hA2B receptor; [2]) | other results
1 | Nc1cc(Cl)c2ncn([C@H]3[C@H](O)[C@H](O)[C@]4(CO)C[C@H]34)c2n1 [Compound 11, (1R,2R,3S,4R,5S)-4-(5-Amino-7-chloro-3H-imidazo[4,5-b]pyridin-3-yl)-1-(hydroxymethyl)bicyclo[3.1.0]hexane-2,3-diol] | 5% | > 10 µM | –
2 | OC[C@@]12C[C@@H]1[C@@H](n1cnc3c(Cl)cc(Cl)nc31)[C@H](O)[C@@H]2O [Compound 12, (1R,2R,3S,4R,5S)-4-(5,7-Dichloro-3H-imidazo[4,5-b]pyridin-3-yl)-1-(hydroxymethyl)bicyclo[3.1.0]hexane-2,3-diol] | – | > 10 µM | Ki ([1]; n = 3): > 10 µM
3 | OC[C@@]12C[C@@H]1[C@@H](n1cnc3c(NCc4ccccc4)cc(Cl)nc31)[C@H](O)[C@@H]2O [Compound 13, (1R,2R,3S,4R,5S)-4-[7-(Benzylamino)-5-chloro-3H-imidazo[4,5-b]pyridin-3-yl]-1-(hydroxymethyl)bicyclo[3.1.0]hexane-2,3-diol] | 25% | > 10 µM | –
4 | CSc1cc(NCc2ccccc2)c2ncn([C@H]3[C@H](O)[C@H](O)[C@]4(CO)C[C@H]34)c2n1 [Compound 14, (1R,2R,3S,4R,5S)-4-[7-(Benzylamino)-5-methylthio-3H-imidazo[4,5-b]pyridin-3-yl]-1-(hydroxymethyl)bicyclo[3.1.0]hexane-2,3-diol] | 20% | > 10 µM | –
5 | COc1ccc(CNc2cc(Cl)nc3c2ncn3[C@H]2[C@H](O)[C@H](O)[C@]3(CO)C[C@H]23)cc1 [Compound 15, (1R,2R,3S,4R,5S)-4-{5-Chloro-7-[(4-methoxy)benzylamino]-3H-imidazo[4,5-b]pyridin-3-yl}-1-(hydroxymethyl)bicyclo[3.1.0]hexane-2,3-diol] | 12% | > 10 µM | –
6 | Nc1cc(Cl)nc2c1ncn2[C@H]1[C@H](O)[C@H](O)[C@]2(CO)C[C@H]12 [Compound 16, (1R,2R,3S,4R,5S)-4-(7-Amino-5-chloro-3H-imidazo[4,5-b]pyridin-3-yl)-1-(hydroxymethyl)bicyclo[3.1.0]hexane-2,3-diol] | 32% | > 10 µM | –
7 | CSc1cc(N)c2ncn([C@H]3[C@H](O)[C@H](O)[C@]4(CO)C[C@H]34)c2n1 [Compound 17, (1R,2R,3S,4R,5S)-4-(7-Amino-5-methylthio-3H-imidazo[4,5-b]pyridin-3-yl)-1-(hydroxymethyl)bicyclo[3.1.0]hexane-2,3-diol] | 23% | > 10 µM | –
8 | OC[C@@]12C[C@@H]1[C@@H](n1cnc3c(N(Cc4ccccc4)Cc4ccccc4)ncnc31)[C@H](O)[C@@H]2O [Compound 26, (1R,2R,3S,4R,5S)-4-[6-(Dibenzylamino)-9H-purin-9-yl]-1-(hydroxymethyl)bicyclo[3.1.0]hexane-2,3-diol] | 25% | – | A2B displacement at 10 µM (hA2B receptor; test compound 10 µM, n = 3): 12%
9 | OC[C@@]12C[C@@H]1[C@@H](n1cnc3c(N(Cc4ccccc4)Cc4ccccc4)nc(Cl)nc31)[C@H](O)[C@@H]2O [Compound 27, (1R,2R,3S,4R,5S)-4-[6-(Dibenzylamino)-2-chloro-9H-purin-9-yl]-1-(hydroxymethyl)bicyclo[3.1.0]hexane-2,3-diol] | 15% | > 10 µM | –
10 | CSc1nc(N(Cc2ccccc2)Cc2ccccc2)c2ncn([C@H]3[C@H](O)[C@H](O)[C@]4(CO)C[C@H]34)c2n1 [Compound 30, (1R,2R,3S,4R,5S)-4-[6-(Dibenzylamino)-2-methylthio-9H-purin-9-yl]-1-(hydroxymethyl)bicyclo[3.1.0]hexane-2,3-diol] | 30% | > 10 µM | –
11 | CSc1nc(N(Cc2ccccc2)Cc2ccccc2)c2ncn([C@H]3[C@H](O)[C@H](O)[C@]4(CCl)C[C@H]34)c2n1 [Compound 31, (1S,2R,3S,4R,5S)-4-[6-(Dibenzylamino)-2-methylthio-9H-purin-9-yl]-1-(chloromethyl)bicyclo[3.1.0]hexane-2,3-diol] | 21% | > 10 µM | –
12 | Nc1ncnc2c1ncn2[C@H]1[C@H](O)[C@H](O)[C@]2(CO)C[C@H]12 [Compound 36, (N)-methanocarba adenosine] | – | > 10 µM | Ki ([1]; n = 3): 6.1 ± 0.46 µM; fold lower affinity towards A1 receptor than A3 ([1]; relative to A3 Ki): 6 fold; affinity at the A2B subtype (hA2B receptor): no affinity
13 | CSc1nc(N)c2ncn([C@H]3[C@H](O)[C@H](O)[C@]4(Cn5cc(CO)nn5)C[C@H]34)c2n1 [Compound 39, (1R,2R,3S,4R,5S)-4-(6-Amino-2-methylthio-9H-purin-9-yl)-1-{[4-(hydroxymethyl)-1H-1,2,3-triazol-1-yl]methyl}bicyclo[3.1.0]hexane-2,3-diol] | 5% | > 10 µM | –
14 | COC(=O)c1cn(C[C@@]23C[C@@H]2[C@@H](n2cnc4c(N)nc(SC)nc42)[C@H](O)[C@@H]3O)nn1 [Compound 40, Methyl 1-{[(1R,2R,3S,4R,5S)-4-(6-amino-2-methylthio-9H-purin-9-yl)-2,3-dihydroxybicyclo[3.1.0]hex-1-yl]methyl}-1H-1,2,3-triazole-4-carboxylate] | 7% | > 10 µM | –
15 | COC(=O)Cc1cn(C[C@@]23C[C@@H]2[C@@H](n2cnc4c(N)nc(SC)nc42)[C@H](O)[C@@H]3O)nn1 [Compound 41, Methyl 2-(1-{[(1R,2R,3S,4R,5S)-4-(6-amino-2-methylthio-9H-purin-9-yl)-2,3-dihydroxybicyclo[3.1.0]hex-1-yl]methyl}-1H-1,2,3-triazol-4-yl)acetate] | – | – | A1 displacement at 1 µM ([1]; footnote a: test compound 1 µM, n = 3): 2% ^a; Ki (hA2B receptor; footnote a: tested at 1 µM, n = 3, read-out: A2B Ki (bound, footnote a)): > 1 µM
